From patent US20230090255A1, “MAGL INHIBITOR, PREPARATION METHOD THEREFOR AND USE THEREOF” (LUNAN PHARMACEUTICAL GROUP CORPORATION, priority 2019, published 2023)

What was measured:
[1] = test system: mice writhing caused by acetic acid; assay: Mice writhing caused by acetic acid; conditions: for Writhing times: 1 h before 0.7% acetic acid ip, within 20 min; for Latent time: time to first writhing; for Inhibition ratio: writhing inhibition
[2] = test system: mice with inflammatory pain; assay: Pain threshold of mice with inflammatory pain (complete Freund's adjuvant); assay type: in vivo, SD mice; conditions: for Pain threshold: complete Freund's adjuvant paw model
Procedure: […] (180±20) g were injected with a complete Freund’s adjuvant (50 µL/piece) at the right rear plantar of mice, and mice in the control group were injected with the corresponding volume of 0.5% sodium carboxymethylcellulose to establish a paw edema inflammatory pain model. After modeling, the mice were administered for 7 d continuously, and administered intragastrically once per day. Pain thresholds (s) of the mice were respectively determined on the 1st, 3rd and 7th day before administration and after modeling at different periods of time.
Grouping and administration were the same as those of Example 40.

[3] = test system: mice pain response induced by hot plate; assay: Mice pain response induced by hot plate; assay type: in vivo, ICR mice; conditions: for Pain threshold: hot plate 55°C
Procedure: Female ICR mice (20±2) g were placed on an intelligent hot plate at 55±0.5° C., and latency (s) that the plantar of mice touched the hot plate until the occurrence of a hind paws licking response served as a pain threshold indicator; the mice (response latency <5 s or >30 s) or jumping mice were eliminated.
Grouping and administration were the same as those in Example 40.
The mice were continuously administered intragastrically for 7 consecutive days; the pain threshold of each group of mice was respectively determined once at 30, 60, 90 and 120 min after the final administration; the pain threshold greater than 60 s was calculated by 60 s.

ulcerative colitis mice = assay: Mice ulcerative colitis (DSS); assay type: in vivo, BALB/c mice; conditions: for Total times of hematochezia within the four periods / Colon length / IL-1 content: DSS mice; for Colon length: four periods; for IL-1 content: serum, ELISA
Source text: Healthy male SPF-level BALB/c mice (8-week old and body mass: (20±2) g).
Modeling: the mice were randomly divided into […] at the end of the quarantine, 10 pieces for each group. The mice in the normal group drank normal water freely, and the rest groups of mice drank 1.0%-1.5% DSS solution freely for modeling, 7 d later after modeling, the mice in the modeling group drank normal water freely for 7 d, and 14 d served as a modeling period for four continuous periods, and the mice in the modeling group were administered at the same time.
End point of the experiment: experimental administration was performed for four periods, and dissection was performed on the 3rd and 4th day of the recovery period of the 4th period.
Test indicators: the mice were weighed twice a week after the beginning of the administration; diarrhea and hematochezia of the mice were observed, and times of hematochezia were recorded.
At the end of the experiment, the mice were dissected and weighed, and narcotized to take blood, then serum was preserved at -80° C. Spleen was taken and weighed to calculate the spleen index. The content of IL-1β in serum was detected via ELISA. Colorectum was cut and taken to measure the length of colorectum, then immobilized by formaldehyde and dyed by HE to detect the pathological change.

[4] = test system: reserpine-induced mice migraine; assay: Reserpine-induced mice migraine; assay type: in vivo, ICR mice; conditions: for Blood coagulation time: reserpine 0.2 mg/kg sc mice, 1 h after final administration; for brain tissue 5-HT / Times of tail suspension (struggling times within 2 min): reserpine mice; for Times of tail suspension (struggling times within 2 min): 9th day
Procedure: The mice in the blank control group and model group were administered intragastrically via a solvent from the 5th day after modeling, and the rest groups of mice were respectively administered corresponding medicaments and doses for intragastric administration for 10 consecutive days; 1 h later after the final administration, the mice were weighed; blood was taken at inner canthus to detect blood coagulation time; whole blood was taken, and cerebrum was taken on an ice and preserved at -20° C. for the subsequent experiment.
Behavioral test: tail suspension activity was performed; the position 1 cm away from the tail of the mice was glued by an adhesive tape on the 9th day of the test, and the adhesive tape was penetrated by a steel needle, and hung in a dark box such that the mice were hung upside down; then the mice struggling times (total number of overturning from hanging) within 2 min were observed.
The mice were weighed 1 h later after the final administration; blood of inner canthus was taken via a capillary to detect the blood coagulation time.
Blood was taken to detect the content of 5-HT in serum via high-performance liquid chromatography. Cerebrum was taken on an ice and precooled and cleaned slightly with 0.5% sodium carboxymethylcellulose, and then sucked dry with a filter paper, and placed into a cryogenic tube, and preserved at -20° C. for further use, then the content of 5-HT in brain tissues was detected by high performance liquid chromatography.
5-HT test method: a sample was precipitated with 10% perchloric acid solution according to 1:1, and then centrifuged to take supernatant for test. Chromatographic conditions: the chromatographic column is a SHIMADZU VP-ODS C18 column (250*4.6 mm, 5 um), the mobile phase is a methanol-0.01 mol/L potassium acetate buffer solution (10:90, V/V, PH is adjusted to 4.00 with 0.2 mol/L citric acid) for gradient elution; the column temperature is 25° C., flow rate is 1.00 ml/min and test wavelength is 275 nm.

O=C(Nc1cccc(Cl)c1)C1CCN(C(=O)c2cccc(O)c2)CC1 [MAGLZ-II-11]
latent time, in words ([1]; compared with the model group): extend | mice writhing times caused by acetic acid, in words ([1]; compared with the model group): significantly decrease | Writhing times ([1]; high dose 30 mg/kg ig): 13.6±13.1 | Latent time ([1]; high dose 30 mg/kg ig): 467.8 ± 175.6 s | Inhibition ratio ([1]; high dose 30 mg/kg ig): 65.4% | Writhing times ([1]; low dose 7.5 mg/kg ig): 23.4±11.7 | Latent time ([1]; low dose 7.5 mg/kg ig): 379.7 ± 129.3 s | Inhibition ratio ([1]; low dose 7.5 mg/kg ig): 40.5% | Writhing times ([1]; middle dose 15 mg/kg ig): 17.5±9.6 | Latent time ([1]; middle dose 15 mg/kg ig): 408.4 ± 128.2 s | Inhibition ratio ([1]; middle dose 15 mg/kg ig): 55.5% | pain threshold of the mice with inflammatory pain, in words ([2]; compared with the model group): significantly extend | Pain threshold ([2]; high dose 30 mg/kg ig once per day, 0 d): 12.88 ± 2.27 s | Pain threshold ([2]; high dose 30 mg/kg ig once per day, 1 d): 7.99±0.90^∗∗∗ s | Pain threshold ([2]; high dose 30 mg/kg ig once per day, 3 d): 9.88±1.34^∗∗∗ s | Pain threshold ([2]; high dose 30 mg/kg ig once per day, 7 d): 11.26±1.82^∗∗∗ s | Pain threshold ([2]; low dose 7.5 mg/kg ig once per day, 0 d): 12.94 ± 2.41 s | Pain threshold ([2]; low dose 7.5 mg/kg ig once per day, 1 d): 7.55±1.29^∗∗∗ s | Pain threshold ([2]; low dose 7.5 mg/kg ig once per day, 3 d): 9.00±0.73^∗∗∗ s | Pain threshold ([2]; low dose 7.5 mg/kg ig once per day, 7 d): 10.26±1.08^∗∗∗ s | Pain threshold ([2]; middle dose 15 mg/kg ig once per day, 0 d): 12.80 ± 2.27 s | Pain threshold ([2]; middle dose 15 mg/kg ig once per day, 1 d): 7.73±1.10^∗∗∗ s | Pain threshold ([2]; middle dose 15 mg/kg ig once per day, 3 d): 9.47±0.79^∗∗∗ s | Pain threshold ([2]; middle dose 15 mg/kg ig once per day, 7 d): 10.93±1.62^∗∗∗ s | pain thresholds of the thermal-stimulus mice, in words ([3]; compared with the model group): significantly extend | Pain threshold ([3]; high dose 30 mg/kg ig 7 d, 30 min after final administration): 41.43 ± 5.15 s | Pain threshold ([3]; high dose 30 mg/kg ig 7 d, 60 min): 46.16 ± 6.63 s | Pain threshold ([3]; high dose 30 mg/kg ig 7 d, 90 min): 47.22 ± 5.98 s | Pain threshold ([3]; high dose 30 mg/kg ig 7 d, 120 min): 45.49 ± 6.31 s | Pain threshold ([3]; low dose 7.5 mg/kg ig 7 d, 30 min after final administration): 37.92 ± 8.83 s | Pain threshold ([3]; low dose 7.5 mg/kg ig 7 d, 60 min): 44.14 ± 7.56 s | Pain threshold ([3]; low dose 7.5 mg/kg ig 7 d, 90 min): 45.93 ± 8.38 s | Pain threshold ([3]; low dose 7.5 mg/kg ig 7 d, 120 min): 43.80 ± 6.12 s | Pain threshold ([3]; middle dose 15 mg/kg ig 7 d, 30 min after final administration): 40.33 ± 8.25 s | Pain threshold ([3]; middle dose 15 mg/kg ig 7 d, 60 min): 44.87 ± 5.67 s | Pain threshold ([3]; middle dose 15 mg/kg ig 7 d, 90 min): 46.41 ± 5.36 s | Pain threshold ([3]; middle dose 15 mg/kg ig 7 d, 120 min): 43.44 ± 5.91 s | Total times of hematochezia within the four periods (ulcerative colitis mice; high dose 30 mg/kg ig): 24.80±5.43 | Colon length (ulcerative colitis mice; high dose 30 mg/kg ig): 7.68±0.75 cm | IL-1 content (ulcerative colitis mice; high dose 30 mg/kg ig): 33.83 ± 7.14 pg/mL | Total times of hematochezia within the four periods (ulcerative colitis mice; low dose 7.5 mg/kg ig): 32.00±4.94 | Colon length (ulcerative colitis mice; low dose 7.5 mg/kg ig): 6.88±0.89 cm | IL-1 content (ulcerative colitis mice; low dose 7.5 mg/kg ig): 44.57 ± 10.32 pg/mL | Total times of hematochezia within the four periods (ulcerative colitis mice; middle dose 15 mg/kg ig): 27.20±5.39 | Colon length (ulcerative colitis mice; middle dose 15 mg/kg ig): 7.26±0.67 cm | IL-1 content (ulcerative colitis mice; middle dose 15 mg/kg ig): 41.40 ± 9.50 pg/mL | IL-1 content, in words (ulcerative colitis mice; compared with the model group): decrease | colon length, in words (ulcerative colitis mice; compared with the model group): significantly increase | total times of hematochezia, in words (ulcerative colitis mice; compared with the model group): reduce | blood coagulation time, in words ([4]; compared with the model group): significantly extend | level of 5-HT in the brain tissue, in words ([4]; compared with the model group): significantly increase | times of the tail suspension activity, in words ([4]; compared with the model group): significantly increase | Blood coagulation time ([4]; high dose 30 mg/kg ig 10 d): 336.88±33.09 S | Blood coagulation time ([4]; low dose 7.5 mg/kg ig 10 d): 222.5±35.52 S | Blood coagulation time ([4]; middle dose 15 mg/kg ig 10 d): 326.88±45.9 S | brain tissue 5-HT ([4]; high dose 30 mg/kg ig 10 d): 3.63 ± 5.34 nmol/g | Times of tail suspension (struggling times within 2 min) ([4]; high dose 30 mg/kg ig): 23.00±3.59 | brain tissue 5-HT ([4]; low dose 7.5 mg/kg ig 10 d): 1.54 ± 0.27 nmol/g | Times of tail suspension (struggling times within 2 min) ([4]; low dose 7.5 mg/kg ig): 14.13±1.89 | brain tissue 5-HT ([4]; middle dose 15 mg/kg ig 10 d): 2.10 ± 0.22 nmol/g | Times of tail suspension (struggling times within 2 min) ([4]; middle dose 15 mg/kg ig): 16.13±1.73
